Results from publication PMC7769672, “Skin-Related Properties and Constituents from the Aerial Parts Extract of Persicaria senticosa” (Oxidative Medicine and Cellular Longevity, 2020).
Where “and” joins values, the source holds several entries; their conditions need not be identical. Identical values can stand only once. Like-named read-outs stand apart in the source and are kept apart here.

What was measured:
mushroom tyrosinase = test: Tyrosinase inhibition assay; assay type: biochemical; conditions: for IC50: Table 3, isolated compounds
Method: Tyrosinase inhibitory activity was measured by using the method described by Yagi et al.. The reaction was carried out in 0.1 M potassium phosphate buffer (pH 6.5) containing 1.5 mM L-tyrosine and 1250 units/mL mushroom tyrosinase. The reaction mixture was incubated at 37°C for 20 min. The test samples were assayed for tyrosinase inhibition by measuring its effect on tyrosinase activity using SpectraMax 190PC microplate ELISA reader at 490 nm.

[1] = DPPH radical scavenging activity assay; conditions: for DPPH radical scavenging activity (in words): Figure 4; for IC50: Table 3, isolated compounds
Method: DPPH radical scavenging activity was measured by using the method described by Blois and Ozgen et al.. DPPH solution dissolved in methanol was added to the sample, which was diluted to the required concentration, and the reaction was carried out at room temperature for 30 min. Absorbance was measured at 517 nm using an ELISA reader. The antioxidant butylated hydroxyanisole (BHA) was used as a positive control, and the IC50 value of the sample was determined.

elastase = elastase (Sus scrofa, UniProt P00772); test: Elastase inhibition assay; assay type: biochemical
Method: The reaction was carried out in 0.5 mM Tris buffer (pH 8.5) containing 1 mg/mL N-succinyl-(Ala)3-p-nitroanilide and 0.6 unit/mL elastase. The reaction mixture was incubated at 25°C for 10 min. The test samples were assayed for elastase inhibition by measuring its effect on elastase activity using an ELISA reader at 405 nm. Ursolic acid was used as a positive control, and the IC50 value of the sample was determined.

RAW 264.7 cells [2] = test: Cell cytotoxicity assay (MTT); assay type: cell-based, murine; conditions: Mus musculus, RAW264.7
Method: RAW 264.7 cells were plated at a density of 5 × 10^4 cells/well in 96-well plates. Cells were treated with samples for 1 h prior to LPS (1 μg/mL) stimulation for 24 h. MTT (5 mg/mL in PBS) was added to each well and incubated for 2 hr. The medium was removed from the wells by aspiration, DMSO was added to each well, and the plate was shaken. The absorbance of each well was measured at a wavelength of 540 nm using an ELISA reader. Data are presented as the mean ± standard deviation of three replicates.

RAW 264.7 cells [3] = test: NO assay (nitrite by Griess reagent in LPS-stimulated cells); assay type: cell-based, murine
Method: RAW 264.7 cells were seeded in 96-well plates (5 × 10^4 cells/well) and were treated with sample for 1 h prior to LPS (1 μg/mL) stimulation for 24 h. The negative control was treated with serum-free media. The amount of nitrite, a stable metabolite of NO, was measured by using Griess reagent (1% sulfanilamide and 0.1% naphthylethylenediamine dihydrochloride in 2.5% phosphoric acid). Absorbance was subsequently measured at 540 nm using an ELISA reader. The quantity of nitrite was determined from a standard curve for sodium nitrite.

[4] = ABTS radical scavenging activity
Method: ABTS radical scavenging activity was measured by using a previously described method. ABTS+ was formed by mixing 7 mM ABTS solution and 2.45 mM potassium persulfate (K2S2O8) solution with ABTS: K2S2O8 (2 : 1 ratio) for 12–16 h to form a cation (ABTS^+). The absorbance was measured at 734 nm using an ELISA reader. BHA, an antioxidant, was used as the positive control.

[5] = Table 3, isolated compounds, read-out: Elastase inhibition assay IC50
[6] = Table 3, isolated compounds, read-out: MTT assay IC50
[7] = Mus musculus, RAW264.7, Table 3, isolated compounds, read-out: NO assay IC50

Sequence of elastase (P00772 27-266): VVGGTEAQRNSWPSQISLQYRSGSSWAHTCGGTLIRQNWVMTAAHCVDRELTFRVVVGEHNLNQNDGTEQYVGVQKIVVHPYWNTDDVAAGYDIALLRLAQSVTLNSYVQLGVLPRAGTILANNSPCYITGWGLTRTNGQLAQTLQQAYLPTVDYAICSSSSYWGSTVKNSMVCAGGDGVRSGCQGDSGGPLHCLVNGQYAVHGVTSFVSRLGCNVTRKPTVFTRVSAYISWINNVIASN

SMILES | IC50 [1] | IC50 (mushroom tyrosinase) [µM] | IC50 (elastase; [5]) [µM] | IC50 (RAW 264.7 cells [2]; [6]) [µM] | IC50 (RAW 264.7 cells [3]; [7]) [µM] | other results
OC[C@H]1O[C@@H](Oc2ccc(O)cc2)[C@H](O)[C@@H](O)[C@@H]1O [Arbutin, reference compound] |  |  |  |  |  | Whitening Tyrosinase assay (IC50) (mushroom tyrosinase; Table 1, methanol extracts, L-tyrosine substrate): Arbutin 135.0 ± 19.9 μg/mL
COC(=O)C1OC(Oc2c(-c3ccc(O)cc3)oc3cc(O)cc(O)c3c2=O)C(O)C(O)C1O (stereo not drawn) [Compound 5, kaempferol-3-(6-methylglucuronide)] | 37 µM | > 100 | > 1000 | > 100 | > 100 | DPPH radical scavenging activity (in words) [1]: excellent antioxidant activity; IC50 ([1]; listed as Comp. 5): 36.99 ± 0.16 µM
COc1ccc(O)c(C(C)(C)C)c1 [BHA, butylated hydroxyanisole, reference compound] | 272 µM |  |  |  |  | Antioxidant ABTS (IC50) ([4]; Table 1, methanol extracts, 734 nm): BHA 2.9 ± 0.1 μg/mL; Antioxidant ABTS ([4]; Table 2, fractions): BHA 4.03 ± 0.05 μg/mL; Antioxidant DPPH (IC50) ([1]; Table 1, methanol extracts, 30 min, 517 nm): BHA 15.6 ± 0.2 μg/mL; Antioxidant DPPH ([1]; Table 2, fractions): BHA 14.58 ± 0.06 μg/mL
O=c1c(O)c(-c2ccc(O)c(O)c2)oc2cc(O)cc(O)c12 [Compound 7, quercetin] | 22.7 µM |  |  | > 100 | 29.7 | IC50 ([1]; listed as Comp. 7): 22.7 ± 0.53 µM; IC50 (RAW 264.7 cells [3]; Table 3, isolated compounds, listed as Comp. 7, read-out: NO assay IC50): 29.7 ± 7.07 µM
O=C(O)C1OC(Oc2c(-c3ccc(O)c(O)c3)oc3cc(O)cc(O)c3c2=O)C(O)C(O)C1O (stereo not drawn) [Compound 3, quercetin-3-O-glucuronide] | 31.2 µM | > 100 | > 1000 | > 100 | > 100 | IC50 ([1]; listed as Comp. 3): 31.2 ± 0.47 µM
COc1ccc(/C=C/C(=O)OC(C(=O)O)C(O)C(=O)O)cc1O (stereo not drawn) [Compound 4, 4-methoxy caftraric acid] | > 1000 µM | > 100 | > 1000 | 84.6 ± 9.85 | > 100 | 
[H]/N=C(/NC)NCCC[C@H](N)C(=O)O [L-NMMA, reference compound] |  |  |  | > 100 | 14.6 | IC50 (RAW 264.7 cells [2]; Table 1 positive control, read-out: Anti-inflammatory MTT, positive control): > 100 µM; IC50 (RAW 264.7 cells [3]; Mus musculus, RAW264.7, Table 2 positive control, read-out: Anti-inflammatory NO, positive control): 37.6 µM; IC50 (RAW 264.7 cells [3]; Mus musculus, RAW264.7, Table 1 positive control, read-out: Anti-inflammatory NO (IC50), positive control): 36.3 µM
O=c1c(O[C@@H]2O[C@H](CO)[C@@H](O)[C@H](O)[C@H]2O)c(-c2ccc(O)c(O)c2)oc2cc(O)cc(O)c12 [Compound 2, quercetin-3-O-glucoside] | 39.6 µM and 39.4 µM | > 100 | > 1000 | > 100 | > 100 | DPPH radical scavenging activity (in words) [1]: excellent antioxidant activity; IC50 ([1]; listed as Comp. 2): 39.6 ± 4.1 µM
C[C@H]1[C@H](C)CC[C@]2(C(=O)O)CC[C@]3(C)C(=CC[C@@H]4[C@@]5(C)CC[C@H](O)C(C)(C)[C@@H]5CC[C@]43C)[C@H]12 [Ursolic acid, reference compound] |  |  | 86.3 |  |  | IC50 (elastase; Table 1, methanol extracts, read-out: Anti-wrinkle Elastase assay (IC50)): 116 µM; IC50 (elastase; Table 2, fractions, unit inferred, read-out: Antiwrinkle Elastase assay): 85.3 µM
COC(=O)C1OC(Oc2c(-c3ccc(O)c(O)c3)oc3cc(O)cc(O)c3c2=O)C(O)C(O)C1O (stereo not drawn) [Compound 6, quercetin-3-(6-methylglucuronide)] | > 1000 µM | > 100 | > 1000 | > 100 | > 100 | 
CC1(C)C[C@H](O)C[C@@]2(C)OC(=O)C=C12 [Compound 1, loliolide] | > 1000 µM | > 100 | > 1000 | > 100 | > 100 | 
